# Reference: paper PMC12992715, “Dual interference with host neuropeptide signaling allows parasitoid wasp to hijack host sugar metabolism” (The EMBO Journal, 2025)
# No end group written: not given here.
# What was measured:
# Type in all cases: in vivo, Plutella xylostella
# P. xylostella larvae = experiment: Circulating haemolymph trehalose after injection of synthetic sNPF peptides, venom, CvBV or teratocyte content; details: words
# Protocol: Microinjections were performed under a Stemi 2000C microscope (Zeiss) using glass capillary injection needles and an Eppendorf Femtojet (Eppendorf) with a microcontroller (Narishige). To confirm the function of bovine insulin on hosts, 1 μg bovine insulin (Sigma-Aldrich, I0305000) was injected into the middle 3rd instar P. xylostella larvae. To identify the effect of each parasitic factor on hosts, 0.05 FE CvBV or 0.05 VRE venom was injected into the abdomen of the middle 3rd instar P. xylostella larva (Wang et al, [2018]; Yu et al, [2007]). 1 TE teratocytes’ content was microinjected into the early 4th instar P. xylostella larvae. To confirm the function of each synthetic sNPF peptide, 0.005 ng, 0.05 ng, or 0.5 ng of each peptide was injected into the middle 3rd instar P. xylostella larvae in a volume of 0.1 μl/per larva once per day for 3 consecutive days.
# For P. xylostella larvae, 1 μl of haemolymph from the moth was diluted 60-fold in cold PBS and subjected to trehalose determination. The fat body of P. xylostella larvae was homogenised in 200 μl of cold PBS. Half of the homogenate was centrifuged at 13,000 rpm for 15 min, and the supernatant was used for protein content determination by Bradford Reagent (Invitrogen). The rest was heated at 70 °C for 5 min followed by centrifuging at 13,000 rpm for 15 min, and the supernatant was used for glycogen determination.
# Trehalose content determination was performed by the anthrone sulfate method. 15 μL of the sample was incubated with 15 μL of 1% H2SO4 at 90 °C for 10 min, then 15 μL of 30% KOH was added and incubated at 90 °C for 10 min. Finally, 300 μl of 0.2% anthrone (Sigma-Aldrich) solution in 96% H2SO4 was added and incubated at 90 °C for 10 min. All reactions were stopped by immersion in ice. To create a trehalose standard curve, 15 μl of trehalose standards (Sigma-Aldrich) were treated similarly as a sample. Finally, 100 μl of each sample was added to a 96-well plate. The absorbance of samples was then measured at 630 nm on a SpectraMax® iD5 Multi-Mode Microplate Reader (Molecular Devices), and the trehalose levels were calculated based on the standard curve and normalised by protein content or sample volume.
# PxsNPFR = experiment: qPCR of PxHK / PxGP upon synthetic sNPF with dsPxsNPFR treatment; details: non-parasitised larvae, 3L, 0.5 ng sPxsNPF-1 + dsPxsNPFR; n = 6-7; words
# Description: To analyse gene expression in different tissues, P. xylostella larvae were dissected under the microscope, followed by the collection of the silk gland, fat body, midgut, haemocytes and central nervous system (CNS, brain and ventral nerve cord). Haemocytes were collected on clean Parafilm membranes with capillaries by bleeding the larvae from a cut proleg. To explore gene expression at different instars of parasitised or non-parasitised larvae, non-parasitised larva was isolated individually using RNA-easy Isolation Reagent (Vazyme). Parasitoid larvae were removed before parasitised hosts were isolated. As for the measurement of other experiments, per larva with different treatments was isolated individually using RNA-easy Isolation Reagent according to the manufacturer’s instructions.
# The quality and concentrations of total RNAs were estimated by electrophoresis and NanoDrop 2000 spectrophotometer (Thermo Fisher Scientific). […] Relative gene expression levels were calculated using the 2^−ΔΔCt method. […]
# DNA fragments of ∼500 bp in size were amplified by PCR. […] Synthetic dsRNA was confirmed by an agarose gel, and the concentration was determined by NanoDrop2000 spectrophotometer (Thermo Scientific). About 500 ng of dsRNA was injected into P. xylostella larvae 72 h post-parasitisation, and the RNAi efficiency was detected 48 h post-injection by qPCR. […]
# [1] = test system: P. xylostella fat body and midgut transcriptome; experiment: RNA sequencing of fat body and midgut after injection of sPxsNPF-1 or sCvsNPF
# Protocol: The fat body and midgut of the 4 M instar P. xylostella larvae were dissected under the microscope in PBS on ice. Total RNA was isolated using an RNA isolater Total RNA Extraction Reagent (Vazyme) according to the manufacturer’s instructions. The quality and the concentration of the isolated total RNA were estimated by electrophoresis and a NanoDrop 2000. The transcriptome sequencing was performed at Annoroad Gene Technology. cDNA libraries for transcriptome sequencing made from the total RNA were prepared using the NEBNext Ultra RNA Library Prep Kit for Illumina in conjunction with the NEBNext Poly (A) mRNA Magnetic Isolation Module. Libraries were validated and quantified before being pooled and sequenced on an Illumina HiSeq 2000 (Illumina) sequencer with a 150 bp paired-end protocol. The raw reads were filtered by removing adaptor sequences, empty reads and low-quality sequences (reads with unknown sequences ‘N’). Sequences were de novo assembled using Trinity on a Galaxy Portal, and both ends were sequenced. The fragments per kilobase of transcript per million mapped reads (FPKM) method was used to analyse the expression profiles of all unigenes in different samples. Read counts were input into DESeq2 to calculate differential gene expression and statistical significance. […]
substance,measurement,setting,value
"SVRSPSRRLRF-NH2 [sPxsNPF-1, synthetic short neuropeptide F-1 of Plutella xylostella]","effect on haemolymph trehalose level, dose dependence","P. xylostella larvae; 0.005, 0.05, 0.5 ng per larva",dependent on the concentration
same,effect on haemolymph trehalose level,"P. xylostella larvae; synthetic PxsNPFs, injected into 3M larvae, measured at 4M, high dosage 0.5 ng per larva, n = 4-6",increased the haemolymph trehalose level
same,sNPF-induced PxHK expression after PxsNPFR knockdown,PxsNPFR,abolished following dsPxsNPFR treatment
same,DEGs common to sPxsNPF-1 and sCvsNPF sets,[1]; 157 transcripts in both sets,3.6%
same,"expression of genes involved in Gq activation (PLC, IP3)","[1]; RNA-seq after injection, words",significantly upregulated after sPxsNPF-1 injection
